Test results published in US8952024B2, “Herbicidal pyrimidone derivatives” (E I du Pont de Nemours and Company, priority 2009, dated 2015).

Assays:
Format in all cases: in vivo
[1] = tested on: wheat (Triticum aestivum); experiment: Test B pre-/postemergence plant response
Description: (§1) Seeds of plant species selected from blackgrass (Alopecurus myosuroides), downy bromegrass (Bromus tectorum), green foxtail (Setaria viridis), Italian ryegrass (Lolium multiflorum), wheat (Triticum aestivum), wild oat (Avena fatua), deadnettle (henbit deadnettle, Lamium amplexicaule), galium (catchweed bedstraw, Galium aparine), bermudagrass (Cynodon dactylon), Surinam grass (Brachiaria decumbens), cocklebur (Xanthium strumarium), corn (Zea mays), large crabgrass (Digitaria sanguinalis), woolly cupgrass (Eriochloa villosa), giant foxtail (Setaria faberii), goosegrass (Eleusine indica), johnsongrass (Sorghum halepense), kochia (Kochia scoparia), lambsquarters (Chenopodium album), morningglory (Ipomoea coccinea), nightshade (eastern black nightshade, Solanum ptycanthum), yellow nutsedge (Cyperus esculentus), pigweed (Amaranthus retroflexus), ragweed (common ragweed, Ambrosia elatior), Russian thistle (Salsola kali), soybean (Glycine max), sunflower (common oilseed sunflower, Helianthus annuus) and velvetleaf (Abutilon theophrasti) were planted into a blend of loam soil and sand and treated preemergence with test compounds formulated in a non-phytotoxic solvent mixture which included a surfactant.
(§2) At the same time, plants selected from these crop and weed species and also winter barley (Hordeum vulgare), canarygrass (Phalaris minor), chickweed (Stellaria media) and windgrass (Apera spica-venti) were planted in pots containing Redi-Earth® planting medium (Scotts Company, 14111 Scottslawn Road, Marysville, Ohio 43041) comprising spaghnum peat moss, vermiculite, wetting agent and starter nutrients and treated with postemergence applications of some of the test chemicals formulated in the same manner. Plants ranged in height from 2 to 18 cm (1- to 4-leaf stage) for postemergence treatments.
(§3) Treated plants and controls were maintained in a greenhouse for 13 to 15 days, after which time all treated plants were visually evaluated and compared to controls. Plant response ratings, summarized in Table B, are based on a scale of 0 to 100 where 0 is no effect and 100 is complete control. A dash (-) response means no test result.

[2] = tested on: cocklebur (Xanthium strumarium); experiment: Test B pre-/postemergence plant response
Description: as §1, §2, §3

[3] = tested on: bermudagrass (Cynodon dactylon); experiment: Test B pre-/postemergence plant response
Description: as §1, §2, §3

[4] = tested on: pigweed (Amaranthus retroflexus); experiment: Test A pre-/postemergence plant response
Method in brief: (§4)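 Each species was treated preemergence via directed soil spray and postemergence at the one- to two-leaf stage, with compounds formulated in a non-phytotoxic solvent plus surfactant. Visual injury relative to untreated controls was rated after about ten days on a 0–100 scale.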

[5] = tested on: barnyardgrass (Echinochloa crus-galli); experiment: Test A pre-/postemergence plant response
Method in brief: as §4

[6] = tested on: wheat (Triticum aestivum); experiment: Test A pre-/postemergence plant response
Method in brief: as §4

[7] = tested on: corn (Zea mays); experiment: Test A pre-/postemergence plant response
Method in brief: as §4

[8] = tested on: velvetleaf (Abutilon theophrasti); experiment: Test A pre-/postemergence plant response
Method in brief: as §4

[9] = tested on: large crabgrass (Digitaria sanguinalis); experiment: Test A pre-/postemergence plant response
Method in brief: as §4

[10] = tested on: morningglory (Ipomoea spp.); experiment: Test A pre-/postemergence plant response
Method in brief: as §4

[11] = tested on: giant foxtail (Setaria faberii); experiment: Test A pre-/postemergence plant response
Method in brief: as §4

[12] = 250 g ai/ha, Preemergence, 0 to 100 scale
[13] = Postemergence, 31 g ai/ha, scale 0 to 100 (0 no effect, 100 complete control)
[14] = Postemergence, 62 g ai/ha, scale 0 (no effect) to 100 (complete control), 13 to 15 days
[15] = Postemergence, 125 g ai/ha, visual rating after 13 to 15 days, scale 0 (no effect) to 100 (complete control)
[16] = Postemergence, 250 g ai/ha, scale 0 to 100
[17] = Preemergence, 31 g ai/ha, scale 0 to 100 (0 no effect, 100 complete control)
[18] = Preemergence, 62 g ai/ha, scale 0 to 100, 0 no effect, 100 complete control
[19] = Preemergence, 125 g ai/ha, 0 to 100 scale
[20] = Postemergence, 125 g ai/ha, visual injury, 0 to 100 scale (0 no effect, 100 complete control), approx. ten days
[21] = Postemergence, 500 g ai/ha, 0 to 100 scale, 0 = no effect, 100 = complete control, approx. ten days
[22] = Preemergence, 125 g ai/ha, 0 to 100 scale, 0 = no effect, 100 = complete control
[23] = Preemergence, 500 g ai/ha, visual injury, 0 to 100 scale (0 no effect, 100 complete control), approx. ten days
[24] = 31 g ai/ha, postemergence, scale 0 to 100, 0 is no effect, 100 is complete control
[25] = Postemergence, 250 g ai/ha, scale 0 to 100 (0 no effect, 100 complete control)
[26] = Preemergence, 125 g ai/ha, scale 0 to 100, 0 no effect, 100 complete control

2-(3,5-difluorophenyl)-5-[(2-hydroxy-4-oxobicyclo[3.2.1]oct-2-en-3-yl)carbonyl]-3-(2-methoxyethyl)-4(3H)-pyrimidinone [Compound 243]
100: Plant response rating, Cocklebur [2, 12] | Plant response rating, Bermudagrass [3, 12] | Plant response rating, Bermudagrass [3, 18] | Bermudagrass plant response rating [3, 19] | Pigweed plant response rating [4, 20] | Plant response rating, Pigweed [4, 21] | Plant response rating, Pigweed [4, 23] | Plant response rating, Barnyardgrass [5, 21] | Plant response rating, Barnyardgrass [5, 23] | Velvetleaf plant response rating [8, 20] | Plant response rating, Velvetleaf [8, 21] | Plant response rating, Velvetleaf [8, 23] | Plant response rating, Crabgrass, Large [9, 23]
95: Plant response rating, Bermudagrass [3, 14]
30: Plant response rating, Wheat [1, 15] | Wheat plant response rating [1, 16]
98: Plant response rating, Bermudagrass ([3]; Postemergence, 125 g ai/ha, scale 0 to 100 (0 no effect, 100 complete control), 13 to 15 days) | Bermudagrass plant response rating [3, 16] | Plant response rating, Bermudagrass [3, 17]
50: Plant response rating, Pigweed [4, 22]
20: Plant response rating, Morningglory [10, 22]
35: Plant response rating, Cocklebur [2, 15]
65: Cocklebur plant response rating [2, 19]
0: Plant response rating, Wheat [1, 13] | Plant response rating, Wheat [1, 17] | Plant response rating, Wheat [1, 18] | Wheat plant response rating [1, 19] | Plant response rating, Cocklebur [2, 13] | Plant response rating, Cocklebur [2, 14] | Plant response rating, Cocklebur [2, 17] | Plant response rating, Barnyardgrass [5, 22] | Wheat plant response rating [6, 20] | Plant response rating, Wheat [6, 22] | Plant response rating, Wheat [6, 23] | Plant response rating, Corn [7, 22] | Plant response rating, Corn [7, 23]
45: Cocklebur plant response rating [2, 16]
90: Plant response rating, Bermudagrass [3, 13] | Plant response rating, Crabgrass, Large [9, 21] | Plant response rating, Crabgrass, Large [9, 22] | Plant response rating, Morningglory [10, 21] | Plant response rating, Morningglory [10, 23] | Plant response rating, Foxtail, Giant [11, 21] | Plant response rating, Foxtail, Giant [11, 23]
40: Plant response rating, Wheat [6, 21] | Plant response rating, Foxtail, Giant [11, 22]
80: Barnyardgrass plant response rating [5, 20] | Morningglory plant response rating [10, 20] | Foxtail, Giant plant response rating [11, 20]
10: Corn plant response rating [7, 20]
25: Plant response rating, Cocklebur [2, 18]
70: Plant response rating, Corn [7, 21] | Plant response rating, Velvetleaf [8, 22] | Crabgrass, Large plant response rating [9, 20]
5: Plant response rating, Wheat [1, 12] | Plant response rating, Wheat [1, 14]

Cc1cccc(-n2c(-c3ccccc3)ncc(C(=O)C3=C(O)CCCC3=O)c2=O)c1F [Compound 58]
90: Plant response rating, Cocklebur [2, 25] | Plant response rating, Barnyardgrass [5, 21] | Plant response rating, Barnyardgrass [5, 23] | Plant response rating, Crabgrass, Large [9, 21] | Plant response rating, Crabgrass, Large [9, 23] | Plant response rating, Foxtail, Giant [11, 21]
65: Plant response rating, Cocklebur [2, 12]
30: Plant response rating, Barnyardgrass [5, 22]
98: Plant response rating, Bermudagrass [3, 15] | Plant response rating, Bermudagrass [3, 17] | Plant response rating, Bermudagrass [3, 18]
100: Plant response rating, Bermudagrass [3, 12] | Plant response rating, Bermudagrass [3, 25] | Plant response rating, Bermudagrass [3, 26] | Pigweed plant response rating [4, 20] | Plant response rating, Pigweed [4, 21] | Plant response rating, Pigweed [4, 23] | Velvetleaf plant response rating [8, 20] | Plant response rating, Velvetleaf [8, 21] | Plant response rating, Velvetleaf [8, 23] | Plant response rating, Morningglory [10, 21] | Plant response rating, Morningglory [10, 23]
85: Plant response rating, Cocklebur [2, 24] | Plant response rating, Cocklebur [2, 14] | Plant response rating, Cocklebur [2, 15] | Plant response rating, Bermudagrass [3, 24] | Plant response rating, Bermudagrass [3, 14]
0: Plant response rating, Wheat [1, 24] | Plant response rating, Wheat [1, 14] | Plant response rating, Wheat [1, 15] | Plant response rating, Wheat [1, 25] | Plant response rating, Wheat [1, 17] | Plant response rating, Wheat [1, 18] | Plant response rating, Wheat [1, 26] | Plant response rating, Cocklebur [2, 17] | Plant response rating, Cocklebur [2, 18] | Wheat plant response rating [6, 20] | Plant response rating, Wheat [6, 21] | Plant response rating, Wheat [6, 22] | Plant response rating, Wheat [6, 23] | Corn plant response rating [7, 20] | Plant response rating, Corn [7, 22] | Plant response rating, Corn [7, 23]
80: Crabgrass, Large plant response rating [9, 20] | Morningglory plant response rating [10, 20] | Plant response rating, Foxtail, Giant [11, 23]
10: Plant response rating, Cocklebur [2, 26]
50: Barnyardgrass plant response rating [5, 20] | Plant response rating, Foxtail, Giant [11, 22]
20: Plant response rating, Corn [7, 21]
70: Plant response rating, Pigweed [4, 22] | Plant response rating, Velvetleaf [8, 22] | Plant response rating, Crabgrass, Large [9, 22] | Foxtail, Giant plant response rating [11, 20]

CCCn1c(-c2ccccc2)ncc(C(=O)C2=C(O)CCCC2=O)c1=O [Compound 50]
40: Plant response rating, Morningglory [10, 22]
50: Plant response rating, Barnyardgrass [5, 22] | Plant response rating, Foxtail, Giant [11, 22]
15: Plant response rating, Wheat [1, 25]
85: Plant response rating, Cocklebur [2, 24] | Plant response rating, Cocklebur [2, 14]
0: Plant response rating, Wheat [1, 24] | Plant response rating, Wheat [1, 12] | Plant response rating, Wheat [1, 17] | Wheat plant response rating [1, 19] | Wheat plant response rating [6, 20] | Plant response rating, Wheat [6, 21] | Plant response rating, Wheat [6, 22] | Plant response rating, Wheat [6, 23] | Corn plant response rating [7, 20] | Plant response rating, Corn [7, 22] | Plant response rating, Corn [7, 23]
90: Plant response rating, Cocklebur [2, 15] | Plant response rating, Cocklebur [2, 25] | Plant response rating, Bermudagrass [3, 24] | Plant response rating, Pigweed [4, 22] | Barnyardgrass plant response rating [5, 20] | Plant response rating, Barnyardgrass [5, 23] | Plant response rating, Velvetleaf [8, 23] | Crabgrass, Large plant response rating [9, 20] | Plant response rating, Crabgrass, Large [9, 21] | Plant response rating, Crabgrass, Large [9, 22] | Foxtail, Giant plant response rating [11, 20] | Plant response rating, Foxtail, Giant [11, 21]
30: Plant response rating, Corn [7, 21]
75: Plant response rating, Cocklebur [2, 18] | Cocklebur plant response rating [2, 19]
80: Plant response rating, Velvetleaf [8, 22] | Morningglory plant response rating [10, 20] | Plant response rating, Morningglory [10, 21] | Plant response rating, Morningglory [10, 23] | Plant response rating, Foxtail, Giant [11, 23]
5: Plant response rating, Wheat [1, 14] | Plant response rating, Wheat [1, 15]
100: Plant response rating, Bermudagrass [3, 12] | Plant response rating, Bermudagrass [3, 14] | Plant response rating, Bermudagrass [3, 15] | Plant response rating, Bermudagrass [3, 25] | Plant response rating, Bermudagrass [3, 17] | Plant response rating, Bermudagrass [3, 18] | Bermudagrass plant response rating [3, 19] | Pigweed plant response rating [4, 20] | Plant response rating, Pigweed [4, 21] | Plant response rating, Pigweed [4, 23] | Plant response rating, Barnyardgrass [5, 21] | Velvetleaf plant response rating [8, 20] | Plant response rating, Velvetleaf [8, 21] | Plant response rating, Crabgrass, Large [9, 23]
